Reference: the supplement of paper PMC12592484

How the values were obtained:
Assay in all cases: drug sensitivity score (DSS2, normalised partial AUC of dose-response, 72 h CellTiter-Glo viability) (DSS (dimensionless)); higher = more sensitive (stronger growth inhibition / cytotoxicity); extreme values may be limits of the assay
[1] = tested on: PF179T
How it was run: (§1)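 Viability of low-passage primary prostate cancer-associated fibroblasts, PF179T, WPMY-1, LNCaP and 22Rv1 cells was read by CellTiter-Glo 2.0 luminescence 72 h after seeding onto compounds pre-dispensed in 384-well plates at five doses over a 10,000-fold range. Readings were scaled between vehicle and positive-control wells. Sensitivity is reported as a drug sensitivity score from BREEZE, namely a partial area under the fitted logistic curve divided by the log of its upper asymptote, where higher means more sensitive.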

[2] = tested on: CAF#3 (primary prostate cancer-associated fibroblasts of myCAF-like type)
How it was run: as §1

[3] = tested on: 22Rv1
How it was run: as §1

[4] = tested on: CAF#1 (primary prostate cancer-associated fibroblasts of myCAF-like type)
How it was run: as §1

[5] = tested on: CAF#2 (primary prostate cancer-associated fibroblasts of iCAF-like type)
How it was run: as §1

[6] = tested on: LNCAP
How it was run: as §1

[7] = tested on: WPMY-1
How it was run: as §1

[8] = tested on: CAF#6 (primary prostate cancer-associated fibroblasts of iCAF-like type)
How it was run: as §1

[9] = tested on: CAF#4 (primary prostate cancer-associated fibroblasts of iCAF-like type)
How it was run: as §1

[10] = tested on: CAF#5 (primary prostate cancer-associated fibroblasts of myCAF-like type)
How it was run: as §1

[11] = tested on: CAF#7 (primary prostate cancer-associated fibroblasts of myCAF-like type)
How it was run: as §1

Compound	drug sensitivity score [1]	drug sensitivity score [2]	drug sensitivity score [3]	drug sensitivity score [4]	drug sensitivity score [5]	drug sensitivity score [6]	drug sensitivity score [7]	drug sensitivity score [8]	drug sensitivity score [9]	drug sensitivity score [10]	drug sensitivity score [11]
C#Cc1cccc(Nc2ncnc3cc(OCCOC)c(OCCOC)cc23)c1 [Erlotinib] (tested concentration range 1-10000 nM)	1.4	1.2	1.4	3.7	3.7	4	0.5	0.2	4.8	4.8	1.1
Cn1cnc2c(F)c(Nc3ccc(Br)cc3F)c(C(=O)NOCCO)cc21 [Binimetinib] (tested concentration range 0.1-1000 nM)	0	0	8.7	0	2.2	0	0.9	0	0	0.8	0.2
CS(=O)(=O)N1CCN(Cc2cc3nc(-c4cccc5[nH]ncc45)nc(N4CCOCC4)c3s2)CC1 [Pictilisib] (tested concentration range 1-10000 nM)	11.2	10.9	16.1	11.7	11.5	13.7	12	7.7	10.9	12	9.3
Nc1ccn([C@@H]2O[C@H](CO)[C@@H](O)[C@@H]2O)c(=O)n1 [Cytarabine] (tested concentration range 1-10000 nM)	12.9	0	14.3	1.8	10	11.9	7.7	0.5	5.4	1.9	2.6
O=c1ncn2nc(Sc3ccc(F)cc3F)ccc2c1-c1c(Cl)cccc1Cl [Neflamapimod] (tested concentration range 1-10000 nM)	0	0	0.8	0	0	1.2	0	0	0	0	0
C[C@H]1O[C@@H](O[C@H]2[C@@H](O)C[C@H](O[C@H]3[C@@H](O)C[C@H](O[C@H]4CC[C@@]5(C)[C@H](CC[C@@H]6[C@@H]5C[C@@H](O)[C@]5(C)[C@@H](C7=CC(=O)OC7)CC[C@]65O)C4)O[C@@H]3C)O[C@@H]2C)C[C@H](O)[C@@H]1O [Digoxin] (tested concentration range 0.1-1000 nM)	13.6	8.7	14.4	10.2	13.8	12	14.7	10.8	19.4	13.4	11.2
Nc1nc2cc(-c3ccc4ncc(C(=O)N5CCOCC5)n4c3)ccc2o1 [Serabelisib] (tested concentration range 1-10000 nM)	2.8	4.2	5.2	3.2	4.3	2.3	1.2	4.5	2.1	5.7	3.4
COc1cc2c(Oc3ccc(NC(=O)C4(C(=O)Nc5ccc(F)cc5)CC4)cc3F)ccnc2cc1OCCCN1CCOCC1 [Foretinib] (tested concentration range 0.1-1000 nM)	6.8	7.9	3.4	6.8	10.3	5.6	7.9	5.2	6.9	6.7	7
O=C1CCC(N2C(=O)c3ccccc3C2=O)C(=O)N1 (stereo not given) [Thalidomide] (tested concentration range 1-10000 nM)	0	0	0	0	0	0	0	0	0	0	0
C[C@H]1Oc2cc(cnc2N)-c2c(nn(C)c2C#N)CN(C)C(=O)c2ccc(F)cc21 [Lorlatinib] (tested concentration range 0.1-1000 nM)	0	0	0.3	1.9	2.2	0	0.4	1.4	2.5	3.3	2.9
Cc1c(Cn2c(C)nc3c(C(=O)O)cc(N4CCOCC4)cc32)cccc1C(F)(F)F (tested concentration range 1-10000 nM)	2.1	6.2	0	2.6	0.4	12.4	0	2.1	1.3	0.1	5.1
C#Cc1cccc(Nc2ncnc3cc4c(cc23)OCCOCCOCCO4)c1 [Icotinib] (tested concentration range 1-10000 nM)	0	2.3	0.7	0.3	0	0	0	0	0	0	0
C/C(=C\c1csc(C)n1)[C@@H]1C[C@@H]2O[C@]2(C)CCC[C@H](C)[C@H](O)[C@@H](C)C(=O)C(C)(C)[C@@H](O)CC(=O)N1 [Ixabepilone] (tested concentration range 0.1-1000 nM)	3.2	0.1	4.3	2.9	4.3	4.4	4.5	0	2.9	2.5	0.4
COc1cc2ncnc(Nc3cccc(Cl)c3F)c2cc1OC(=O)N1CCN(C)C[C@H]1C [AZD3759] (tested concentration range 0.1-1000 nM)	0	0.4	0	0	0	0	0	0	0	0	0
CC(C)n1nc(-c2ccc3oc(N)nc3c2)c2c(N)ncnc21 [Sapanisertib] (tested concentration range 0.1-1000 nM)	18	14.3	21.2	20.2	14	20	13.7	14.6	17.8	19.1	13.2
NC(=O)NO [Hydroxyurea] (tested concentration range 100-1000000 nM)	2.4	0.5	3.8	1.9	5.5	4.6	5	0	0.2	2.5	0
FC(F)(F)c1ccc(/C=C/c2nc(COc3ccc(CCCCn4ccnn4)cc3)co2)cc1 [Mubritinib] (tested concentration range 0.1-1000 nM)	9.7	0	5.8	0	0	11.7	12	0	0	0	0
O=C(O)C(=O)O.[NH-][C@@H]1CCCC[C@H]1[NH-].[Pt+2] [Oxaliplatin] (tested concentration range 10-100000 nM)	8.8	8.3	13.8	9.7	10.6	26.1	9	7.3	9.1	9.4	7.4
O=C1c2c(O)ccc(O)c2C(=O)c2c(NCCNCCO)ccc(NCCNCCO)c21 [Mitoxantrone] (tested concentration range 0.1-1000 nM)	9.9	1.2	10.7	3.7	8.9	14.7	15	4	5	6.6	7.2
Cc1sc2c(c1C)C(c1ccc(Cl)cc1)=N[C@@H](CC(=O)Nc1ccc(OCCOCCOCCOCCNc3cccc4c3C(=O)N(C3CCC(=O)NC3=O)C4=O)cc1)c1nnc(C)n1-2 (stereo not given in full) [ARV-825] (tested concentration range 0-300 nM)	3.3	15.6	14.7	7.7	5.8	17.1	8.1	11.6	6.9	6.2	17.1
CS(=O)(=O)c1ccc(C(=O)Nc2ccc(Cl)c(-c3ccccn3)c2)c(Cl)c1 [Vismodegib] (tested concentration range 1-10000 nM)	0	1.5	0	0	0	0.2	0	0	0	0	0
CCN(CC)CCCC(C)Nc1c2ccc(Cl)cc2nc2ccc(OC)cc12 (stereo not given) [Mepacrine] (tested concentration range 5-50000 nM)	13.7	11.3	17.3	9.1	14.9	19	19.6	9.9	14.2	13.4	12.6
CC(C)N(C[C@H]1O[C@@H](n2cnc3c(N)ncnc32)[C@H](O)[C@@H]1O)[C@H]1C[C@@H](CCc2nc3cc(C(C)(C)C)ccc3[nH]2)C1 [Pinometostat] (tested concentration range 0.1-1000 nM)	0	1.5	0	0	0	0	0	0	0	0	0
CCCCOc1nc(N)c2c(n1)N(Cc1cccc(CN3CCCC3)c1)CC(=O)N2 [Vesatolimod] (tested concentration range 1-10000 nM)	0	0	0	0	0	0	0	0	0	0	0
CCCCCOC(=O)Nc1nc(=O)n([C@@H]2O[C@H](C)[C@@H](O)[C@H]2O)cc1F [Capecitabine] (tested concentration range 1-10000 nM)	0	0	0	0	0	0	0	0	0	0	0
